One test relates to b2m−/− mice. Description: Correction of hyperferremia in beta2-microglobulin deficient mice. Type of test: in vivo, mouse. An excerpt:
Mutations in genes involved in sensing the systemic iron stores, such as hepcidin (Hamp1), hemochromatosis protein (HFE), hemojuvelin (HJV) and transferrin receptor 2 (TFR2) cause iron overload in mice and men. HFE, HJV and TFR2 molecules on hepatocytes are necessary for signaling of appropriate hepcidin production and their deficiency results in pathophysiologically low hepcidin levels and excessive iron absorption. HFE mutations is the most frequent cause of hereditary hemochromatosis (HH) in Caucasian adults. HFE is a MHC class I-like membrane molecule that associates with beta 2-microglobulin and participates in hepcidin transcriptional regulation through the bone morphogenetic protein receptor (BMPR) pathway. HFE−/− mice have decreased hepcidin levels, develop hyperferremia and high hepatic iron levels, which makes them a suitable animal model for studying iron overload in humans (Zhou, 1998). Mice deficient in beta 2-microglobulin (b2m−/−) develop hyperferremia and hemochromatosis similarly to HFE−/− animals, as beta 2-microglobulin is necessary for the cell-surface expression and function of HFE (Rothenberg and Voland, 1996). Due to the unavailability of HFE−/− mice, b2m−/− mice were used as a model of iron overload.
Female and male homozygous b2m−/− mice were supplied from Jackson Laboratories (B6.129P2-B2mtm1Unc/J, Stock Number: 002087) at age of 6 to 7 weeks and fed standard diet (Harlan Provimi Kliba 3436) ad libitum. Age and gender matched WT C57BL/6 mice were supplied by Charles River. To study the acute effects of ferroportin (Fpn) inhibitors in iron overload b2m−/− mice were treated with compounds or the corresponding amount of vehicle at a volume of 10 ml/kg body weight. […] WT controls received only vehicle. Three hours later, mice were pre-terminally anesthetized in isoflurane chambers and blood was collected by retro-orbital bleeding. Mice were sacrificed by cervical dislocation and spleens, livers and duodena were harvested and used for biomarker analysis. All experiments have been performed in compliance with license approved by the responsible veterinarian authorities. Serum was isolated by centrifugation of blood into gel-containing microtainers (BD Biosciences) and serum iron was determined by the MULTIGENT Iron assay (Abbott Diagnostics, Cat. 6K95). Four to nine mice per group were used and one-way ANOVA with Bonferroni's multiple comparison test was applied to analyze the statistical differences between the experimental groups.

In the next test the target is T1, ferroportin (Fpn) (Mus musculus, UniProt Q9JHI9).
T1 construct: host or cells: J774 mouse macrophage cell line, Fe(III)-NTA induced
T1 sequence (Q9JHI9 1-570): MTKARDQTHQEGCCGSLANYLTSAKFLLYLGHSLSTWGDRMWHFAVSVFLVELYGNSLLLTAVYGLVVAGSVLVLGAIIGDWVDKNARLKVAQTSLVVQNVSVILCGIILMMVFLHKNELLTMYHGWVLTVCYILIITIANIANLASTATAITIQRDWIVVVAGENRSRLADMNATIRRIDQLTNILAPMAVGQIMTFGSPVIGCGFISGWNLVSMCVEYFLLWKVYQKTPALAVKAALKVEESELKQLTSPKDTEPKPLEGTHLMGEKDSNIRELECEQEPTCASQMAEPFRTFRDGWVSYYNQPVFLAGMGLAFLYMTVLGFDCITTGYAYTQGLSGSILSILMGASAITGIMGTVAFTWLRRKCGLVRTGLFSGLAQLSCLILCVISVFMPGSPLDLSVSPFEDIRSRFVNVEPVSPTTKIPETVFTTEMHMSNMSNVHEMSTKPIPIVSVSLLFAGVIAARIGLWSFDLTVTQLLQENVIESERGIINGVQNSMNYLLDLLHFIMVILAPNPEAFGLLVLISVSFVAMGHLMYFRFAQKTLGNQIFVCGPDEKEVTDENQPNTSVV
Description: Ferroportin Ubiquitination and Degradation (immunoprecipitation, Western blot). The conditions noted are these: J774 cells; visual inspection of Western blots; concentration per compound ca. 10-fold J774 IC50. The arrangement: key: + comparable to hepcidin; − no effect; +/− intermediate effect. The class given is cell-based. As to the method: Exposure of cells expressing ferroportin (Fpn) to hepcidin is known to trigger ubiquitination aid subsequent internalization and degradation of Fpn (Qiao, 2012). The potential of Fpn inhibitors to induce Fpn ubiquitination and degradation was investigated with an immunoprecipitation assay using the J774 mouse macrophage cell line which expresses Fpn upon treatment with iron.
Cells were incubated with synthetic human hepcidin (Bachem, Cat. H-5926) or Fpn inhibitor compounds for 10 min or 120 min. Cells were washed and lysed witi ice-cold lysis buffer (Pierce, Life Technoligies, Cat. 87787) including 1× HALT protease inhibitor cocktail (Life technologies, Cat. 78429) and 10 mM iodoacetamide (Sigma, Cat. 16125) to stabilize ubiquitinated proteins. Immunoprecipitation was done using the Pierce Classic IP Kit (Life Technologies, Cat. 26146) following the manufacturer's protocol. Briefly, 2 mg protein in 1.25 ml IP lysis buffer was incubated by mixing for 1 h at 4° C. with control agarose beads to pre-clear the lysate and reduce nonspecific signal. Unbound lysate was then incubated overnight with 12 μg per reaction of the affinity purified anti-Fpn antibody F308 that was raised against a GST fusion protein of mouse Fpn amino acids 224308. Immune complexes were captured by pipetting 14 μl settled Pierce Protein A/G Plus Agarose beads (Life Technologies, Cat. 20423) per reaction and the slurry was incubated for 1.5 h at 4° C. with gentle end-over-end mixing. The beads were washed and immune complexes were eluted directly with 75 μl SDS NuPAGE LDS sample buffer (Life Technologies, Cat. NP0007) containing DTT (Life Technologies, Cat. NP0009). After immunoprecipitation samples were analyzed by Western blotting using a rabbit anti-mouse MTP1 antiserum (Alpha Diagnostic International, Cat. MTP11-A) and a mouse anti-mono- and polyubiquitinylated conjugates monoclonal antibody (Enzo Lifesciences, Cat. BML-PW8810) for detection of ferroportin and ubiquitin, respectively. Mouse monoclonal anti-rabbit IgG light chain (Abcam, Cat. ab99697) and anti-mouse IgG H&L (Abcam, Cat. ab6789) HRP conjugates were used as secondary antibodies.
A selection of eleven Fpn inhibitors were tested in this assay and compared to hepcidin.
J774 cells were incubated overnight with Fe(III)-NTA to induce expression of Fpn. […] Mock treated cells were harvested after 120 min (Control).
Background: A western blot detects proteins with antibodies after separation by electrophoresis.

Data on five compounds can be found in US10738041B2, “Ferroportin inhibitors” (Vifor (International) AG, priority 2015, dated 2020).

Marks after values point to notes of the source that are not given here.

As to `O=C(NCc1ncccc1F)c1coc(CCNCCc2nc3ccccc3[nH]2)n1` [Example 127], the “Serum Iron Reduction (%)” value with b2m−/− mice (female, Dose 20 mg/kg oral, blood collected 1 or 3 hours after administration (time not given)) was 47*** %; in the test on b2m−/− mice (female, Dose 60 mg/kg oral, blood collected 1 or 3 hours after administration (time not given)) it was 74*** %; in the test with b2m−/− mice (male, Dose 20 mg/kg oral, blood collected 1 or 3 hours after administration (time not given)) it was 21%; in the test with b2m−/− mice (male, Dose 60 mg/kg oral, blood collected 1 or 3 hours after administration (time not given)), 83** %.

With `O=C(NCc1ncccc1F)c1coc(C2CN(CCc3nc4ccccc4[nH]3)C2)n1` [Example 208], the “Serum Iron Reduction (%)” value was 9% with b2m−/− mice (female, Dose 20 mg/kg oral, blood collected 3 hours (##) after administration); 49*** % in the test with b2m−/− mice (female, Dose 60 mg/kg oral, blood collected 3 hours (##) after administration); 44% with b2m−/− mice (male, Dose 20 mg/kg oral, blood collected 3 hours (##) after administration); 67** % in the test with b2m−/− mice (male, Dose 60 mg/kg oral, blood collected 3 hours (##) after administration).

In the case of `O=C(NCc1ncccc1F)c1csc(CCNCCc2nc3ccccc3[nH]2)n1` [Example 94], in the test with b2m−/− mice (b2m−/− mice, 50 mg/kg p.o. for 3 h (FIG. 5)), the “correction of elevated serum iron” value is “corrected the elevated serum iron to the levels observed in WT controls”.

Take `O=C(NCc1ncccc1F)c1coc(CCNCc2nc3ccccc3[nH]2)n1` [Example 126]: on ferroportin (Fpn), the “Fpn Degradation (120 min.)” value is reported as “+” and the “Fpn Ubiquitination (10 min.)” value is given as “+/−”.

On to `CC[C@H](C)[C@@H]1NC(=O)[C@@H](NC(=O)[C@@H](NC(=O)[C@@H]2CCCN2C(=O)[C@H](Cc2ccccc2)NC(=O)[C@H](Cc2c[nH]cn2)NC(=O)[C@@H](NC(=O)[C@@H](N)CC(=O)O)[C@@H](C)O)[C@@H](C)CC)CSSC[C@@H](C(=O)N[C@@H](CCCCN)C(=O)N[C@H](C(=O)O)[C@@H](C)O)NC(=O)[C@@H]2CSSC[C@@H]3NC(=O)[C@@H]4CSSC[C@H](NC(=O)[C@H](Cc5ccccc5)NC1=O)C(=O)N[C@@H](CSSC[C@H](NC(=O)[C@H](CCCCN)NC(=O)[C@H](CO)NC(=O)[C@H](CCCNC(=N)N)NC(=O)[C@H](Cc1c[nH]cn1)NC3=O)C(=O)NCC(=O)N[C@@H](CCSC)C(=O)N2)C(=O)NCC(=O)N4` [hepcidin, reference compound], for which, at ferroportin (Fpn), the “Fpn Degradation (120 min.)” value is given as “+” and the “Fpn Ubiquitination (10 min.)” value is “+”.
